The record followed here is patent US6503912B1, “Substituted guanidine derivatives” (Bayer Aktiengesellschaft, priority 1998, dated 2003).

Series [1] deals with Mosquito larvae (Aedes aegypti). Description: Aedes Test. It is filed as in vivo. The conditions noted are these: active compound concentration 0.0016%; after 4 hours. On the procedure: Solvent: 1000 parts by weight of methanol
To produce a suitable preparation of active compound, 1 part by weight of active compound is mixed with the stated amount of solvent, and the concentrate is diluted with water to the desired concentrations.
Mosquito larvae (Aedes aegypti) are placed into the preparation of active compound of the desired concentration.
After the desired period of time, the effect on the larvae is determined.

For series [2], the system named is black bean aphid (Aphis fabae). The series is described as follows: Aphis Test (Systemic Action). It is filed as in vivo. The conditions noted are these: active compound concentration 0.01%, watering of Vicia faba, after 4 days. On the procedure:
Aphis Test (Systemic Action)
(§1) Solvent: 7 parts by weight of dimethylformamide
(§2) Emulsifier: 1 part by weight of alkylaryl polyglycol ether
(§3) To produce a suitable preparation of active compound, 1 part by weight of active compound is mixed with the stated amount of solvent, and the stated amount of emulsifier, and the concentrate is diluted with water to the desired concentration.
Bean plants (Vicia faba) which are heavily infested by the black bean aphid (Aphis fabae) are watered with in each case 20 ml of the preparation of active compound of the desired concentration so that the preparation of active compound penetrates into the soil without wetting the shoot. The active compound is taken up by the roots and passed on to the shoot.
After the desired period of time, the kill in % is determined. 100% means that all aphids have been killed; 0% means that none of the aphids has been killed.

The test system of series [3] is eggs of the onion fly (Hylemyia antiqua). Description: Hylemyia Test. It is filed as in vivo. The conditions noted are these: active compound concentration 0.05%; artificial feed; after 7 days. On the procedure: (§4) Solvent: 100 parts by weight of acetone
(§5) 1900 parts by weight of methanol
(§6) To produce a suitable preparation of active compound, 1 part by weight of active compound is mixed with the stated amount of solvent, and the concentrate is diluted with methanol to the desired concentration.
A stated amount of the preparation of active compound of the desired concentration is pipetted onto a standardized quantity of artificial feed. After the methanol has evaporated, about 20 eggs of the onion fly (Hylemyia antiqua) are placed on the feed.
After the desired period of time, the kill of the eggs or larvae in % is determined. 100% means that all animals have been killed; 0% means that none of the animals has been killed.

Series [4] has as its system larvae of the green rice leaf-hopper (Nephotettix cincticeps). The series is described as follows: Nephotettix Test. It is filed as in vivo. The settings on record: active compound concentration 0.1%; dipped rice seedlings; after 6 days. How it is done:
as §1, §2, §3
Rice seedlings (Oryza sativa) are treated by being dipped into the preparation of active compound of the desired concentration and are populated with larvae of the green rice leaf-hopper (Nephotettix cincticeps) while the seedlings are still moist.
After the desired period of time, the kill in % is determined. 100% means that all leaf-hoppers have been killed; 0% means that none of the leaf-hoppers has been killed.

The test system of series [5] is mustard beetle larvae (Phaedon cochleariae). The series is described as follows: Phaedon larvae Test. It is filed as in vivo. The settings on record: active compound concentration 0.1%; dipped cabbage leaves; after 7 days. How it is done:
as §1, §2
To produce a suitable preparation of active compound, 1 part by weight of active compound is mixed with the stated amount of solvent and the stated amount of emulsifier, and the concentrate is diluted with water to the desired concentration.
Cabbage leaves (Brassica oleracea) are treated by being dipped into the preparation of active compound of the desired concentration and are populated with mustard beetle larvae (Phaedon cochleariae) whilst the leaves are still moist.
After the desired period of time, the kill in % is determined. 100% means that all beetle larvae have been killed; 0% means that none of the beetle larvae has been killed.

For series [6], the system named is larva (L2-L3) of the army worm (Spodoptera frugiperda). The series is described as follows: Spodoptera Frugiperda Test/artificial Feed. It is filed as in vivo. The settings on record: active compound concentration 0.05%; artificial feed; after 7 days. On the procedure:
Spodoptera Frugiperda Test/arfificial Feed
as §4, §5, §6
A stated amount of the preparation of active compound of the desired concentration is pipetted onto a standardized quantity of artificial feed. After the methanol has evaporated, in each case one larva (L2-L3) of the army worm (Spodoptera frugiperda) is placed onto the feed, in 3 repetitions.
After the desired period of time, the kill in % is determined. 100% means that all animals have been killed; 0% means that none of the animals has been killed.

For series [7], the system named is Aphis fabae. The series is described as follows: Critical Concentration Test/root-systemic Action. It is filed as in vivo. The conditions noted are these: 20 ppm in soil; broad beans; leaves populated after 7 days, evaluation after a further 6 days. How it is done:
Critical Concentration Test/root-systemic Action
Solvent: 4 parts by weight of acetone
as §2
To produce a suitable preparation of active compound, 1 part by weight of active compound is mixed with the stated amount of solvent, the stated amount of emulsifier is added and the concentrate is diluted with water to the desired concentration.
The preparation of active compound is mixed intimately with soil. The concentration of the active compound in the preparation is virtually immaterial, only the amount by weight of active compound per volume unit of soil, which is stated in ppm (=mg/l), matters. The treated soil is filled into pots which are planted with pregerminated broad beans. Thus, the active compound can be taken up from the soil by the plant roots and transported into the leaves.
After a further 6 days, evaluation is carried out by counting or estimating the dead animals. The root-systemic action of the active compound is deduced from the number of animals killed. It is 100% when all test animals have been killed and 0% when the number of live test insects is identical to that of the untreated control.

Series [8] is described as follows: logP determination by HPLC (EEC directive 79/831 Annex V. A8). The conditions noted are these: HPLC gradient method, acetonitrile/0.1% aqueous phosphoric acid.
Protocol: [logP=The logP values were determined in accordance with EEC directive 79/831 Annex V. A8 by HPLC (gradient method, acetonitrile/0.1% aqueous phosphoric acid]

In the case of `CCOCN1CCN(Cc2ccc(Cl)nc2)C1=N[N+](=O)[O-]` [Example 4], the kill in series [1], in series [2], in series [4], in series [5] and in series [6] was 100% in each case. The “kill of the eggs or larvae” value in series [3] was determined as 100%. The “kill (root-systemic action)” value in series [7] was 100%.
Turning to `O=C(OCN1CCN(Cc2ccc(Cl)nc2)C1=N[N+](=O)[O-])C1CC1` [Example 59], the “logP (pH = 2.3)” value in series [8] came to 1.57.
